Assay: Specific surface area (SSA), BET nitrogen adsorption
Assay type: physicochemical
Conditions: 7 point BET in the range 0.05-0.20 P/Po, triplicate determination, Palbociclib Form A obtained by Example 6
Experimental: Specific Surface Area (SSA) Method
SSA measurement based on BET-nitrogen adsorption were carried out using a Micromeritics TriStar II Plus 3030 specific surface area analyzer together with Micromeritics VacPrep 061 degassing station.
Software version: Microactive for TriStar II Plus v 2.03
Sample tube: ½″ round bottom cell with glass filler rods
Sample masses*: Approximately % full cell
Sample preparation: VacPrep 061, nitrogen stream
Out gassing conditions: 16 hrs at 25° C. under vacuum
Isothermal collection points: 11 point BET in the range 0.05-0.30 P/Po
Isothermal data analysis range: 7 point BET in the range 0.05-0.20 P/Po
Outgas test duration: 180 s
Equilibration interval: 10 s
Equilibration timeout: 600 s
Calculations and Reporting: The specific surface area was reported in the range 0.05-0.20 P/Po using 7 point BET from a triplicate determination.

With CC(=O)c1c(C)c2cnc(Nc3ccc(N4CCNCC4)cn3)nc2n(C2CCCC2)c1=O [Palbociclib, 6-Acetyl-8-cyclopentyl-5-methyl-2-[[5-(1-piperazinyl)-2-pyridinyl]amino]pyrido[2,3-d]pyrimidin-7(8H)-one] the “SSA (specific surface area)” value was 4.9 m^2/g.
